In ChEMBL document CHEMBL5465560, “Selectivity Literature for EUbOPEN Chemogenomic Library” (2024):
One block for each molecule: values may come before it.

Assays:
[1] = target: Histone-lysine N-methyltransferase SUV39H2 (Homo sapiens) (UniProt Q9H5I1); assay: Selectivity interaction (Methyltransferase screen (radiometric assays, panel of 8 PRMTs, 21 protein lysine methyltransferases, 3 DNA methyltransferases, and one RNA methyltransferase)) EUB0000272b SUV39H2
[2] = target: Acetylcholine receptor subunit alpha (Homo sapiens, UniProt P02708); assay: Selectivity interaction (Nicotinic (CNS) Receptor binding in human IMR32 cells ) EUB0000877a CHRNA1; format: cell-based, IMR-32
[3] = target: Dual specificity tyrosine-phosphorylation-regulated kinase 1A (Homo sapiens, UniProt Q13627); assay: Selectivity interaction (Kinase panel (literature)) EUB0001199aCl DYRK1A; settings: at 1 µM
[4] = target: T1, Aurora kinase C (Homo sapiens) (UniProt Q9UQB9); assay: Selectivity interaction (KinomeScan (DiscoverX)) EUB0000607a AURKC; settings: at 10 µM
T1 sequence (whole entry): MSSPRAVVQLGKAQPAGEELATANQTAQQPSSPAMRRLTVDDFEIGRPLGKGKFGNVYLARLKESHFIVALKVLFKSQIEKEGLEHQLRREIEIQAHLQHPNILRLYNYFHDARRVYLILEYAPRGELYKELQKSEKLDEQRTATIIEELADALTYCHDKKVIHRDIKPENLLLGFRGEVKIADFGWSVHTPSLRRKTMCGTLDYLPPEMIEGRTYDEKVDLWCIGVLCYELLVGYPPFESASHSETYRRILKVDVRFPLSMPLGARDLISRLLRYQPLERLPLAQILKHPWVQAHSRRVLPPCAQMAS

[5] = target: T2, Serine/threonine-protein kinase TBK1 (Homo sapiens) (UniProt Q9UHD2); assay: Selectivity interaction (ActivX KiNativ screen (kinase selectivity in THP-1 cell lysates)) EUB0000639a TBK1; format: subcellular; settings: lysate, at 0.01 µM
T2 sequence (whole entry): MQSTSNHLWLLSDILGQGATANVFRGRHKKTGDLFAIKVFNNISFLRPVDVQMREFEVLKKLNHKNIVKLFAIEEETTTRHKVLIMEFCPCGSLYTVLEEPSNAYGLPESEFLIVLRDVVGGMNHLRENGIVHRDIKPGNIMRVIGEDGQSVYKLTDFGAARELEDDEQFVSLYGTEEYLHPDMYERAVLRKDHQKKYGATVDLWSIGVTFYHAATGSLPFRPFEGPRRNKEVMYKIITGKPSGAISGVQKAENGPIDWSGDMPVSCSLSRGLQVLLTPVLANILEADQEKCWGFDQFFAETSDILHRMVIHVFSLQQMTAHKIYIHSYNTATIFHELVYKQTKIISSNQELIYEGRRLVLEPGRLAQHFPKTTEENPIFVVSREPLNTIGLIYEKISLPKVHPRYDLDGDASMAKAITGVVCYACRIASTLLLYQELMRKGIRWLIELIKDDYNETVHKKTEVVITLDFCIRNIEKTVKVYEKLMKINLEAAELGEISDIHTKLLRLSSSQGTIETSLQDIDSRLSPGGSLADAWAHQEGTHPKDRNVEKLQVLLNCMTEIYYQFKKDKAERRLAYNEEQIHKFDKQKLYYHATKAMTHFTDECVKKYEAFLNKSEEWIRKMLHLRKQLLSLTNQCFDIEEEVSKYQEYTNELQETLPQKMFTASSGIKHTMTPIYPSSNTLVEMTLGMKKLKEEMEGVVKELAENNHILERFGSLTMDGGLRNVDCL

[6] = target: Homeodomain-interacting protein kinase 3 (Homo sapiens, UniProt Q9H422); assay: Selectivity interaction (KinomeScan (DiscoverX)) EUB0000595a HIPK3; settings: at 10 µM
[7] = target: SRSF protein kinase 3 (Homo sapiens) (UniProt Q9UPE1); assay: Selectivity interaction (KinomeScan (DiscoverX)) EUB0000595a SRPK3; settings: at 10 µM
[8] = target: T3, Serine/threonine-protein kinase Chk1 (Homo sapiens) (UniProt O14757); assay: Selectivity interaction (KinomeScan (DiscoverX)) EUB0001049a CHEK1; settings: at 1 µM
T3 sequence (whole entry): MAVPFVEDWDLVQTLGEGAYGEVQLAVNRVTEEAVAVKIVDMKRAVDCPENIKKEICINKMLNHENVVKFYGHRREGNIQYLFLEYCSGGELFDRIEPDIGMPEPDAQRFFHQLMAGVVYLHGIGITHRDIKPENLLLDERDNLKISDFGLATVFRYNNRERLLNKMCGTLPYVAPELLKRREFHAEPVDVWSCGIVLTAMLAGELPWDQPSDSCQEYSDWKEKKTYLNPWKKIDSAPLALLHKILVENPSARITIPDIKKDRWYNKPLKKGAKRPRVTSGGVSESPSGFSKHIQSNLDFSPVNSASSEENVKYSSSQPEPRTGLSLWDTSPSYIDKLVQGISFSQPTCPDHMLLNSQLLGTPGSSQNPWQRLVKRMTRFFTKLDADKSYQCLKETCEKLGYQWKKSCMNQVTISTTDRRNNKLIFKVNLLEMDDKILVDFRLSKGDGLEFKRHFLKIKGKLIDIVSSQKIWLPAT

[9] = target: RAC-gamma serine/threonine-protein kinase (Homo sapiens, UniProt Q9Y243); assay: Selectivity interaction (Millipore kinase profiler) EUB0000124b AKT3; settings: at 10 µM
[10] = target: T4, 5-hydroxytryptamine receptor 2C (Homo sapiens) (UniProt P28335); assay: Selectivity interaction (Panel of kinases, GPCRs, ion channels and transporters (enzymatic assay)) EUB0000223bCl HTR2C
T4 sequence (whole entry): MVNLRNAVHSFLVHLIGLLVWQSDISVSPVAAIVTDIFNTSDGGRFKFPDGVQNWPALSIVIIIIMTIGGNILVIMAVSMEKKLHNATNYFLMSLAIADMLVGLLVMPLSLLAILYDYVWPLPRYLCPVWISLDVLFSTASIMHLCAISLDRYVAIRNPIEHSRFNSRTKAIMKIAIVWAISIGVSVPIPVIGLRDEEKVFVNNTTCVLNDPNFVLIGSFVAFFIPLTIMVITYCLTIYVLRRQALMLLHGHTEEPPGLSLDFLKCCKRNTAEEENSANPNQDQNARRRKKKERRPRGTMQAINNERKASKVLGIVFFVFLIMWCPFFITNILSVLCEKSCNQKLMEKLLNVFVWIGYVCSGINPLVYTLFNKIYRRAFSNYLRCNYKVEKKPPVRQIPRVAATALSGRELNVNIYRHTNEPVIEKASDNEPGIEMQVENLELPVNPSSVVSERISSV

Histone-lysine N-methyltransferase SUV39H2 (Homo sapiens), sequence (Q9H5I1 whole entry): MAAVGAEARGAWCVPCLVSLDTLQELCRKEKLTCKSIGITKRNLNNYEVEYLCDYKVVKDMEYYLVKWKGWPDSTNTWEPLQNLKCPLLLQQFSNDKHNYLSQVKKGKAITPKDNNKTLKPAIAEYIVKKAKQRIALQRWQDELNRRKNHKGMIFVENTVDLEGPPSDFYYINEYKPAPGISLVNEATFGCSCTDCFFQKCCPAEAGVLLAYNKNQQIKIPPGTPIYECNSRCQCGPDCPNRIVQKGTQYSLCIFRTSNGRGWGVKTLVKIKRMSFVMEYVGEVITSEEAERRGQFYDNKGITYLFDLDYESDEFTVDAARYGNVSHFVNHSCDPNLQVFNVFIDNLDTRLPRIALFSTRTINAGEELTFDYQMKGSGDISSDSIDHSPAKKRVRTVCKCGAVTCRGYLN
SRSF protein kinase 3 (Homo sapiens), sequence (Q9UPE1 whole entry): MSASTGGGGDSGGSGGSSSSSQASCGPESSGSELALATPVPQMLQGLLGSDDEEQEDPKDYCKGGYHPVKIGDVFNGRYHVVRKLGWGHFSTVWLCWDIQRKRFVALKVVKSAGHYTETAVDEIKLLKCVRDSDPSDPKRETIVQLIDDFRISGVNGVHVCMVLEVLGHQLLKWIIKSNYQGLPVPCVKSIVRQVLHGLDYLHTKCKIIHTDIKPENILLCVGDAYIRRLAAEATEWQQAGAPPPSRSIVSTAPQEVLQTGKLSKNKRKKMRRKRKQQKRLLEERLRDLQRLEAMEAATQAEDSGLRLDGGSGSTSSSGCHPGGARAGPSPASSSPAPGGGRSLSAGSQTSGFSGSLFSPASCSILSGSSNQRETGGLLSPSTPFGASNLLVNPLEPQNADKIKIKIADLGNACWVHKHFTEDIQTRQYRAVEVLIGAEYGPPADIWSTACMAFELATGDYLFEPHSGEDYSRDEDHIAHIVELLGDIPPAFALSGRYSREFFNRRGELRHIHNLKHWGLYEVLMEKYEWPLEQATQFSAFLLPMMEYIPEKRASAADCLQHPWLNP
RAC-gamma serine/threonine-protein kinase, sequence (Q9Y243 whole entry): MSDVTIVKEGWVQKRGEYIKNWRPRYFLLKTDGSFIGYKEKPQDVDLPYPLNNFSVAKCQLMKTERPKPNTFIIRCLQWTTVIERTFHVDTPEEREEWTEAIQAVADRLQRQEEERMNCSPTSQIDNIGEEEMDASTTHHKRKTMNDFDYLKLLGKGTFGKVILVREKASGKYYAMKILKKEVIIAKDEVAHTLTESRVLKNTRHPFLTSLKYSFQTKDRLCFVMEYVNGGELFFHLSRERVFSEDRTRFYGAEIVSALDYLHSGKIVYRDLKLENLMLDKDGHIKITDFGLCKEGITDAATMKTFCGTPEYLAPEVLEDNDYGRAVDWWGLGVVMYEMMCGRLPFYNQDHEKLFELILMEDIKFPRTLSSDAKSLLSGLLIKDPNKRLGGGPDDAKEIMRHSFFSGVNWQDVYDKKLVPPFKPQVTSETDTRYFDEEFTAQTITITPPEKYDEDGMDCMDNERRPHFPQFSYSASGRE
Homeodomain-interacting protein kinase 3, sequence (Q9H422 whole entry, looked up): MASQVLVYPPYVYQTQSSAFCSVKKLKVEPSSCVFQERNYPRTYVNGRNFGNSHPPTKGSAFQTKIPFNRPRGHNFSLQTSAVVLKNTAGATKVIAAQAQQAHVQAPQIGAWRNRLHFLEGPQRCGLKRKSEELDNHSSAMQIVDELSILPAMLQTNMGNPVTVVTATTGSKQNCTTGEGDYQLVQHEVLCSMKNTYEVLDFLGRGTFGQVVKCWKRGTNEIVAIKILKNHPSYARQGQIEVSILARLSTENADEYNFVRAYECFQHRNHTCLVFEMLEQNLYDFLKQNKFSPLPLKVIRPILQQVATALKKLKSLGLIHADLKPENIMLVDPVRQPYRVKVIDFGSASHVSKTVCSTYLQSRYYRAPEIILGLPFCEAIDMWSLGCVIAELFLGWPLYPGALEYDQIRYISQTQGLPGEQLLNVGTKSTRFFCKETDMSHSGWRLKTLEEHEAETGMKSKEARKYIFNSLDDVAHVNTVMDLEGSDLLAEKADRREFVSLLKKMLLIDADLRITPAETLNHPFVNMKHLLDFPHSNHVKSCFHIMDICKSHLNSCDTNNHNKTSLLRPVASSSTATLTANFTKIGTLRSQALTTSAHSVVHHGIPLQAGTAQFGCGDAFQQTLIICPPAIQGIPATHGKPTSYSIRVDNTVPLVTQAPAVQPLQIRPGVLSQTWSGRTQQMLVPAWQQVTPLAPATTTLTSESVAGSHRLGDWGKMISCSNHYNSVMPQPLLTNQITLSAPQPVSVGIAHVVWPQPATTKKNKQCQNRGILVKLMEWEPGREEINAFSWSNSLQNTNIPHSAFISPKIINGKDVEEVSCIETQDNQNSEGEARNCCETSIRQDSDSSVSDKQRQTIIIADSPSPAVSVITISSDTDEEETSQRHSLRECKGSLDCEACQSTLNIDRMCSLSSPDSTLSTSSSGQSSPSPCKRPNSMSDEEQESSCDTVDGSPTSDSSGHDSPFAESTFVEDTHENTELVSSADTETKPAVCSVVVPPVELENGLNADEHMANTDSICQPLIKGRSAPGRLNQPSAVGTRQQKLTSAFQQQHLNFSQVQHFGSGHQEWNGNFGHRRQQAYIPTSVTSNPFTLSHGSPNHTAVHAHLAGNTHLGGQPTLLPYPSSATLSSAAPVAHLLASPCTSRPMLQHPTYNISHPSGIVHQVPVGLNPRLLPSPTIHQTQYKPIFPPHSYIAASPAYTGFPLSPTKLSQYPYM
Acetylcholine receptor subunit alpha, sequence (P02708 whole entry): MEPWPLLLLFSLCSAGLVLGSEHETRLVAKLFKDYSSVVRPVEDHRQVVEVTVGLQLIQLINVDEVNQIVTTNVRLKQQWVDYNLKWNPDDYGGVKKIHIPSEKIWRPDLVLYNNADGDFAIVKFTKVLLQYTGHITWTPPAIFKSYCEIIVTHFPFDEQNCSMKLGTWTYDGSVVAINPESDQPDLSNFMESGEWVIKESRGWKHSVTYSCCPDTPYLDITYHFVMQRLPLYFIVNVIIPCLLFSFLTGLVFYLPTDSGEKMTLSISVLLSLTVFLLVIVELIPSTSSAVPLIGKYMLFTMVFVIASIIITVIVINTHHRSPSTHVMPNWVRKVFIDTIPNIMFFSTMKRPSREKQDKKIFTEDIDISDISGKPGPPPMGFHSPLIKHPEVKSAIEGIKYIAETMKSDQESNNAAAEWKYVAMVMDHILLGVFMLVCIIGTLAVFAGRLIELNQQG

- % of activity ([1]; at 1 µM): 99.7%
- % of activity ([1]; at 10 µM): 98%
SMILES: Cc1cc(C)cc([C@H]2c3cc(C)ccc3NC(=O)CN2C(=O)c2ccc(Br)s2)c1

- IC50 [2]: > 30 µM
SMILES: CCC(=O)N1CC[C@H](Nc2ncnc3c2CN(c2cnc(OC)c(C(F)(F)F)c2)CC3)C1 [LENIOLISIB]

- % of inhibition [3]: -3%
SMILES: CN1Cc2nccc(-c3cn(C)nc3-c3ccc(F)cc3)c2C1=O

SMILES: CNC(=O)Nc1ccc(-c2nc(N3CC4CCC(C3)O4)c3cnn(C4CCC5(CC4)OCCO5)c3n2)cc1
- % of control [4]: 86%

- % of inhibition [5]: 1.3%
SMILES: CC[C@@H]1[C@H](F)C(=O)N[C@@H]1COc1nccc2cc(C(N)=O)c(OC)cc12 [ZIMLOVISERTIB]

SMILES: COCC(=O)NC/C=C/c1ccc2ncnc(Nc3ccc(Oc4ccc(C)nc4)c(C)c3)c2c1 [CP-724714]
- % of control [6]: 100%
- % of control [7]: 100%

SMILES: COc1cc(Nc2nc(C)cc(-c3cnn4nc(OC)ccc34)n2)cc(C(F)(F)F)c1
- % of control [8]: 97%

- % of control [9]: 109%
SMILES: CC(=O)Nc1cccc(-n2c(=O)n(C3CC3)c(=O)c3c(Nc4ccc(I)cc4F)n(C)c(=O)c(C)c32)c1

SMILES: COc1cc(C(=O)N2CC[C@@H](O)[C@@H](N)C2)cc2nc(-c3cc4ccccc4n3CC3CC3)n(C)c12
- pXC50 [10]: < 4.4 M
